Laboratory results from patent publication US8420696B2, “Use of low-dose ladostigil for neuroprotection” (priority 2005, dated 2013).

Columns and labels:
[1] = target: T1, MAO-B (Rattus norvegicus, UniProt P19643); assay: Example 2: MAO-B activity in homogenates of striatum; assay type: in vivo, rats; settings: chronic 1 mg/kg
T1 construct: from tissue; host or cells: striatum homogenate of dosed Sprague-Dawley rats
T1 sequence (P19643 1-520): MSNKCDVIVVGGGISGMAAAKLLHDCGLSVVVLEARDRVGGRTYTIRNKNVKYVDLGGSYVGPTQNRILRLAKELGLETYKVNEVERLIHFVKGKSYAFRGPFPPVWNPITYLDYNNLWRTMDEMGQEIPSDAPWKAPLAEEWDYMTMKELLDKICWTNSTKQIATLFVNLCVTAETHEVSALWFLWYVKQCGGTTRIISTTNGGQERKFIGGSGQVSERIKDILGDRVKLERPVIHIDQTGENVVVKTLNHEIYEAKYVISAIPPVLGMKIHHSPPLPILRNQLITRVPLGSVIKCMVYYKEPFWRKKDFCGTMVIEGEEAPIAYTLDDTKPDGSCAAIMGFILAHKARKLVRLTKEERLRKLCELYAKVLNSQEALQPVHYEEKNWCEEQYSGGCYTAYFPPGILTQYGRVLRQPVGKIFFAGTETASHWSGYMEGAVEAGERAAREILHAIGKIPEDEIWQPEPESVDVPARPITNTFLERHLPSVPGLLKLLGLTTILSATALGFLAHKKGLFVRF
Procedure: The effect of chronic ladostigil treatment on ChE activity in the cortex and hippocampus of rats was determined one week after icv STZ in 12 rats (3 treated with water and 9 with ladostigil). The effect of acute treatment with ladostigil 1 or 17 mg/kg was determined 2 hrs after drug administration. […] The brain was rapidly removed, washed with saline on ice and the cortex, hippocampus and striatum dissected out, quickly weighed and stored at −70° C. until assay. Total ChE activity in the cortex and hippocampus was measured as described in Wang et al., Gender differences in the effect of rivastigmine on brain cholinesterase activity and cognitive function in rats, Neuropharmacology (2000) 39:497-506, using the spectrophotometric method of Ellman et al., A new and rapid colorimetric determination of acetylcholinesterase activity, Biochem. Pharmacol. (1961) 7:88-95 with acetylthiocholine (Sigma Ltd) as a substrate using homogenate of 100 mg tissue in 1 ml phosphate buffer. […] MAO A and B activity was measured in homogenates of striatum as described in Weinstock et al., Limited potentiation of blood pressure response to oral tyramine by brain-selective monoamine oxidase A-B inhibitor, TV-3326 in conscious rabbits, Neuropharmacology (2002) 43:999-1005.

[2] = test system: NT immunoreactivity in astrocytes; assay: Example 2: astrocyte activation and NT immunoreactivity in hippocampus and regions bordering lateral ventricles after icv STZ; assay type: in vivo, Sprague-Dawley rats; settings: 1 mg/kg/day orally, one week after icv STZ
Procedure: Male Sprague-Dawley rats (63) weighing 320-340 g, aged 4 months, were anesthetized by an intraperitoneal injection of Equithesin 0.3 ml/kg. STZ (0.5 mg) dissolved in 2 μl artificial cerebrospinal fluid (CSF) was injected into each lateral ventricle of 45 rats. The stereotaxic co-ordinates for icv injection were: 0.9 mm posterior, 1.8 mm lateral and 3.8 mm ventral from the bregma level. Control rats (18) received a bilateral injection of 2 μl artificial CSF. STZ-injected rats (25) were given ladostigil (1 mg/kg of the hemitartrate salt/day) orally in a volume of (1 ml/kg) from one week before, until 1 or 8 weeks after icv STZ. The remaining 20 rats received 1 ml/kg water. The rats were housed two per cage with free access to food and water until the behavioral, enzymatic and cytochemical measurements were completed. […]
Nitrotyrosine, (NT) a marker of nitrative/oxidative stress, was stained with rabbit anti-nitrotyrosine from Upstate (Lake Placid, N.Y., USA), diluted 1:100 followed by the secondary donkey anti-rabbit conjugated with horseradish peroxidase from Chemicon (Temecula, Calif., USA), was diluted 1:200. […] Images were obtained by bright field microscopy and quantitative assessments of appropriate markers were made using AnalySIS software. […]
For each quantitative analysis of NT-immunoreactive astrocytes, 3 sections were sampled from each rat. […]

For `C#CCN[C@@H]1CCc2ccc(OC(=O)N(C)CC)cc21` [ladostigil, R(+)-6-(N-methyl,N-ethyl-carbamoyloxy)-N′-propargyl-1-aminoindan], the “MAO-B (%) inhibition” value ([1]; 60 min) was 11.3 ± 1.4 %, the “MAO-B (%) inhibition” value ([1]; 120 min (2 hrs)) was 15% and the “Astrocyte activation and NT immunoreactivity in CA1, corpus callosum, medial and lateral septum” value [2] was “reduced both astrocyte activation and NT immunoreactivity in these brain regions to the level of that seen in CSF-injected controls”.
